Patent US20160311812A1, “ADENOSINE A1 AGONISTS AS MEDICAMENTS FOR KIDNEY DISORDERS” (BAYER PHARMA AKTIENGESELLSCHAFT, priority 2013, published 2016)

How the values were obtained:
[1] = test system: unilaterally nephrectomized SHR; test: Functional and structural renal dysfunction in unilaterally nephrectomized spontaneously hypertensive rats; format: in vivo, rat; details: Group 5: SNX + 3.0 mg/kg body weight/day p.o., 4 weeks
Source text: (§1) B-4. Effects of Partial A1 Agonists on Renal and Cardiac Function in Unilaterally Nephrectomized and Spontaneously Hypertensive Rats (Example 2 for Chronic Kidney Disorders)
(§2) Unilaterally nephrectomized, spontaneously hypertensive rats (SHR) are an established animal model for investigating the development and progression of hypertensive damage of the glomeruli in the remaining kidney [H. Kinuno et al., “Effects of uninephrectomy on renal structural properties in spontaneously hypertensive rats”, Clin and Exp Pharmacol and Physiol 2005, 32, 173-178]. […] Furthermore, renal excretion of substances usually eliminated in the urine, such as creatinine and urea, is reduced and the electrolyte metabolism is disturbed, the latter being associated with volume retention.
(§3) Procedure: male SHR rats (180-220 g) from Taconic had the left kidney removed in one session (=UNX). Normotensive Wistar Kyoto rats (WKY) from Taconic served as control. The following groups, each with 12 rats per group, were investigated:
(§4) Group 2 UNX+placebo (60 g glycerol+100 g water+969 g PEG-400)
(§5) Group 3 UNX+10 mg/kg body weight/day enalapril (reference therapy, in the drinking water)
(§6) Group 4 SNX+1.0 mg/kg body weight/day partial A1 EXAMPLE 1, p.o. in placebo
(§7) Group 5 SNX+3.0 mg/kg body weight/day partial A1 EXAMPLE 4, p.o. in placebo
(§8) Three weeks after unilateral nephrectomy, the SHRs developed manifest hypertensive damage of the glomeruli in the remaining kidney, from this time point on the rats were treated for a further four weeks corresponding to the groups given above. At the end of the protocol, the following samples were obtained/measurements were carried out: eight-hour urine collection, invasive measurement of systolic and diastolic left ventricular function, and TaqMan analyses of renal injury markers in the renal cortex.

[2] = test system: 5/6 nephrectomy rat model; test: Functional and structural renal dysfunction in 5/6 nephrectomized rats; format: in vivo; details: 4 weeks; for End organ injury marker concentration in the urine: hFABP / End organ injury marker concentration in the urine: hFABP per creatinine: ELISA; for Kidney injury marker-1 [gene expression] / Lipocalin-2 [gene expression] / Osteopontin [gene expression]: renal cortex
Source text: (§9) B-3. Effects of Partial A1 Agonists on Renal and Cardiac Function in 5/6 Nephrectomized Rats (Example 1 for Chronic Kidney Disorder)
(§10) 5/6 nephrectomy in the rat, in which one kidney and the renal cortex of the second kidney are surgically removed (=5/6 of functional kidney tissue) is an established animal model for interstitial renal fibrosis and chronic renal insufficiency [C. Fleck et al., “Suitability of 5/6 nephrectomy (5/6NX) for the induction of interstitial renal fibrosis in rats Influence of sex, strain, and surgical procedure”, Exp. Tox. Pathology 2006, 57, 195-205]. The model is characterized by progressive proteinuria, disturbed tubular electrolyte transport, a reduced glomerular filtration rate, an increase in urinary output, interstitial fibrosis with reactively occurring lymphocyte infiltrates, glomerulosclerosis and tubular atrophy. The level of proteinuria is a specific index of the renal function prognosis: the higher the proteinuria, the greater is the functional and structural kidney injury and therefore progression of chronic to terminal renal insufficiency (uraemia). During monitoring of therapy, e.g. with the ACE inhibitor enalapril, the course of proteinuria provides information on the functional and structural response to the therapy and thus on the renal function prognosis. As a result of the renal insufficiency and accumulation of umemic toxins, in the animals there is secondary development of a umemic cardiomyopathy, depending on the severity associated with hypertension, increased heart rate, reduced parasympathetic tone, myocardial, left-ventricular hypertrophy and fibrosis, diastolic dysfunction and an increased prevalence of arrhythmias [Svilerova et al. 2010 Physiol Res 59: S81-S88).
(§11) Procedure: male Wistar:WU rats (210-250 g) from Charles River had the left kidney and the renal cortex of the right kidney removed (=SNX) in one session; sham-operated rats served as control group (=SOP). The following groups, each with 12 rats per group, were investigated:
(§12) Group 2 SNX+placebo (60 g glycerol+100 g water+969 g PEG-400)
(§13) Group 3 SNX+10 mg/kg body weight/day enalapril (reference therapy, in the drinking water)
(§14) Group 4 SNX+0.1 mg/kg body weight/day partial A1 agonist EXAMPLE 1, p.o. in placebo
(§15) Group 5 SNX+1.0 mg/kg body weight/day partial A1 agonist EXAMPLE 1, p.o. in placebo
(§16) Group 6 SNX+0.3 mg/kg body weight/day partial A1 agonist EXAMPLE 4, p.o. in placebo
(§17) Group 7 SNX+3.0 mg/kg body weight/day partial A1 agonist EXAMPLE 4, p.o. in placebo
(§18) Three weeks after 5/6 nephrectomy, the rats developed manifest proteinuria, from this time point the rats were treated for a further four weeks corresponding to the groups stated above. At the end of the protocol, the following samples were obtained/measurements were carried out: eight-hour urine collection with determination of the concentration of hFABP in the urine by ELISA (Rat/Mouse h-FABP ELISA, Hycultbiotech), as marker for end organ damage, invasive measurement of the isoprenaline-induced increase (cumulatively 12.5 ng-250 ng/kg isoprenaline, i.v.) in systolic and diastolic left ventricular function, and TaqMan analyses of renal injury markers in the renal cortex.

[3] = test system: 5/6 nephrectomy rat model; test: Left-ventricular diastolic dysfunction under isoprenaline infusion in 5/6 nephrectomized rats; format: in vivo; details: 4 weeks
Source text: as §9, §10, §11, §12, §13, §14, §15, §16, §17, §18

[4] = test system: unilaterally nephrectomized SHR; test: Functional and structural myocardial dysfunction in unilaterally nephrectomized spontaneously hypertensive rats; format: in vivo, rat; details: Group 5: SNX + 3.0 mg/kg body weight/day p.o., 4 weeks
Source text: as §1, §2, §3, §4, §5, §6, §7, §8

[5] = Group 6: SNX + 0.3 mg/kg body weight/day p.o.
[6] = Group 7: SNX + 3.0 mg/kg body weight/day p.o.

N#Cc1c(SCc2csc(-c3ccc(Cl)cc3)n2)nc(N2CCCC2)c(C#N)c1-c1ccc(OCCO)cc1 [EXAMPLE 4, 2-({[2-(4-Chlorophenyl)-1,3-thiazol-4-yl]methyl}sulphanyl)-4-[4-(2-hydroxyethoxy)phenyl]-6-(pyrrolidin-1-yl)pyridine-3,5-dicarbonitrile]
P-creatinine [1]: 58 ± 0.6 µmol/L | P-urea [1]: 8.7 ± 0.2 mmol/L | U-creatinine [1]: 3.4 ± 0.9 μmol/ml urine/kg BW/h | U-protein [1]: 0.96 ± 0.26 μmol/ml urine/kg BW/h | U-sodium [1]: 46 ± 11 μmol/ml urine/kg BW/h | U-urea [1]: 337 ± 89 μmol/ml urine/kg BW/h | Urine volume [1]: 1.8 ± 0.2 ml/kg BW/h | CYR61 [gene expression] ([1]; renal cortex): 274 ± 21 rel. expression | Lipocalin-2 [gene expression] ([1]; renal cortex): 119 ± 9 rel. expression | P-creatinine [2, 5]: 64 ± 1 µmol/L | P-urea [2, 5]: 11 ± 0.3 mmol/L | U-creatinine [2, 5]: 3.1 ± 0.2 μmol/ml urine/kg BW/h | U-protein [2, 5]: 1.70 ± 0.29 μmol/ml urine/kg BW/h | U-sodium [2, 5]: 19 ± 3 μmol/ml urine/kg BW/h | U-urea [2, 5]: 330 ± 25 μmol/ml urine/kg BW/h | Urine volume [2, 5]: 1.8 ± 0.1 ml/kg BW/h | End organ injury marker concentration in the urine: hFABP [2, 5]: 3125 ± 497 pg hFABP/ml urine/h | End organ injury marker concentration in the urine: hFABP per creatinine [2, 5]: 386 ± 57 pg hFABP/μmol creatinine | Kidney injury marker-1 [gene expression] [2, 5]: 68 ± 14 rel. expression | Lipocalin-2 [gene expression] [2, 5]: 340 ± 49 rel. expression | Osteopontin [gene expression] [2, 5]: 6882 ± 1240 rel. expression | P-creatinine [2, 6]: 63 ± 1 µmol/L | P-urea [2, 6]: 11 ± 0.3 mmol/L | U-creatinine [2, 6]: 2.7 ± 0.3 μmol/ml urine/kg BW/h | U-protein [2, 6]: 0.97 ± 0.12 μmol/ml urine/kg BW/h | U-sodium [2, 6]: 43 ± 5 μmol/ml urine/kg BW/h | U-urea [2, 6]: 281 ± 30 μmol/ml urine/kg BW/h | Urine volume [2, 6]: 1.8 ± 0.2 ml/kg BW/h | End organ injury marker concentration in the urine: hFABP [2, 6]: 1706 ± 249 pg hFABP/ml urine/h | End organ injury marker concentration in the urine: hFABP per creatinine [2, 6]: 218 ± 39 pg hFABP/μmol creatinine | Kidney injury marker-1 [gene expression] [2, 6]: 56 ± 18 rel. expression | Lipocalin-2 [gene expression] [2, 6]: 283 ± 45 rel. expression | Osteopontin [gene expression] [2, 6]: 6340 ± 1656 rel. expression | left-ventricular pressure decrease as a function of time ([3]; isoprenaline 0 ng/kg body weight, Group 6: SNX + 0.3 mg/kg body weight/day p.o.): 6518 ± 221 mmHg/s | left-ventricular pressure decrease as a function of time ([3]; isoprenaline 0 ng/kg body weight, Group 7: SNX + 3.0 mg/kg body weight/day p.o.): 6884 ± 383 mmHg/s | left-ventricular pressure decrease as a function of time ([3]; isoprenaline 12.5 ng/kg body weight, Group 6: SNX + 0.3 mg/kg body weight/day p.o.): 7733 ± 233 mmHg/s | left-ventricular pressure decrease as a function of time ([3]; isoprenaline 12.5 ng/kg body weight, Group 7: SNX + 3.0 mg/kg body weight/day p.o.): 8369 ± 395 mmHg/s | left-ventricular pressure decrease as a function of time ([3]; isoprenaline 25 ng/kg body weight, Group 6: SNX + 0.3 mg/kg body weight/day p.o.): 8001 ± 224 mmHg/s | left-ventricular pressure decrease as a function of time ([3]; isoprenaline 25 ng/kg body weight, Group 7: SNX + 3.0 mg/kg body weight/day p.o.): 8557 ± 396 mmHg/s | left-ventricular pressure decrease as a function of time ([3]; isoprenaline 50 ng/kg body weight, Group 6: SNX + 0.3 mg/kg body weight/day p.o.): 8763 ± 195 mmHg/s | left-ventricular pressure decrease as a function of time ([3]; isoprenaline 50 ng/kg body weight, Group 7: SNX + 3.0 mg/kg body weight/day p.o.): 9100 ± 341 mmHg/s | left-ventricular pressure decrease as a function of time ([3]; isoprenaline 100 ng/kg body weight, Group 6: SNX + 0.3 mg/kg body weight/day p.o.): 9621 ± 212 mmHg/s | left-ventricular pressure decrease as a function of time ([3]; isoprenaline 100 ng/kg body weight, Group 7: SNX + 3.0 mg/kg body weight/day p.o.): 10263 ± 294 mmHg/s | left-ventricular pressure decrease as a function of time ([3]; isoprenaline 250 ng/kg body weight, Group 6: SNX + 0.3 mg/kg body weight/day p.o.): 9968 ± 162 mmHg/s | left-ventricular pressure decrease as a function of time ([3]; isoprenaline 250 ng/kg body weight, Group 7: SNX + 3.0 mg/kg body weight/day p.o.): 10385 ± 352 mmHg/s | Diastolic blood pressure [4]: 144 ± 6 mmHg | Heart rate [4]: 326 ± 9 beats/min | Left ventricular hypertrophy (LVS/RV ratio, mg/mg) [4]: 4.5 ± 0.2 mg/mg | Left-ventricular end-diastolic pressure [4]: 10.22 ± 1.6 mmHg | Left-ventricular pressure [4]: 196 ± 5 mmHg | Pressure decrease over time [4]: −10680 ± 524 mmHg/s | Pressure increase over time [4]: 9419 ± 383 mmHg/s | Systolic blood pressure [4]: 205 ± 5 mmHg
